Results: patent US20060069132A1, “Azolecarboxamide herbicides” (priority 2004, published 2006)

What was measured:
[1] = test system: johnsongrass; test: Test C pre-/postemergence herbicide test; type: in vivo, Sorghum halepense
Outline: (§1)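 Visual ratings on a 0–100 scale (100 = complete control) made versus untreated controls after 12 to 14 greenhouse days. Test chemicals, formulated in surfactant-containing non-phytotoxic solvent, applied preemergence to planted seeds or postemergence to 1- to 4-leaf plants (2 to 18 cm).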

[2] = test system: corn; test: Test B pre-/postemergence herbicide test; type: in vivo, Zea mays; conditions: Zea mays
Outline: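 Greenhouse pot assay with simultaneous preemergence (treated seed) and postemergence (2–18 cm seedlings) applications of surfactant-containing, non-phytotoxic solvent formulations. Response scored visually 13–15 days later on a 0–100 scale, 100 meaning complete control.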

[3] = test system: Surinam grass; test: Test C pre-/postemergence herbicide test; type: in vivo, Urochloa decumbens
Outline: as §1

[4] = test system: yellow nutsedge; test: Test C pre-/postemergence herbicide test; type: in vivo, Cyperus esculentus
Outline: as §1

[5] = test system: corn; test: Test C pre-/postemergence herbicide test; type: in vivo, Zea mays
Outline: as §1

[6] = test system: large crabgrass; test: Test C pre-/postemergence herbicide test; type: in vivo, Digitaria sanguinalis
Outline: as §1

[7] = test system: velvetleaf; test: Test C pre-/postemergence herbicide test; type: in vivo, Abutilon theophrasti
Outline: as §1

[8] = test system: wild oat; test: Test B postemergence herbicide test; type: in vivo, Avena fatua; conditions: Postemergence, scale 0 (no effect) to 100 (complete control)
Outline: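 Visual ratings, 0 (no effect) to 100 (complete control), made versus controls after 13–15 d greenhouse. Paddy plants treated at 2-leaf stage; postemergence plants at 1- to 4-leaf stage, 2–18 cm tall.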

[9] = test system: soybean; test: Test C pre-/postemergence herbicide test; type: in vivo, Glycine max
Outline: as §1

[10] = test system: pigweed; test: Test C pre-/postemergence herbicide test; type: in vivo, Amaranthus retroflexus
Outline: as §1

[11] = Preemergence, 500 g ai/ha, scale 0 to 100, 0 no effect, 100 complete control

SMILES: CCn1nc(C(C)(C)C)cc1C(=O)Nc1cc(C(=O)N(C)C)ccc1F [Compound 6, N-[5-[(dimethylamino)carbonyl]-2-fluorophenyl]-3-(1,1-dimethylethyl)-1-ethyl-1H-pyrazole-5-carboxamide]
- Plant response rating (0 = no effect, 100 = complete control), Johnsongrass ([1]; 62 g ai/ha, preemergence): 70
- Johnsongrass plant response rating [1, 11]: 100
- pest or weed control at 125 g/ha ([1]; Sorghum halepense, pre-emergence, 125 g ai/ha, scale 0-100, read-out: Plant response rating, Johnsongrass): 90%
- pest or weed control at 250 g/ha ([1]; Sorghum halepense, pre-emergence, 250 g ai/ha, scale 0 to 100 (0 no effect, 100 complete control), visual, 12 to 14 days, read-out: Plant response rating, Johnsongrass): 90%
- plant injury at 125 g/ha ([2]; post-emergence, Postemergence, 125 g ai/ha, scale 0 (no effect) to 100 (complete control), read-out: Corn plant response rating): 0%
- Corn plant response rating (crop injury, 0 = no effect, 100 = complete kill) at 500 g/ha ([2]; post-emergence, Postemergence, 500 g ai/ha, visual rating after 13 to 15 days, scale 0 (no effect) to 100 (complete control)): 60%
- plant injury at 500 g/ha ([2]; pre-emergence, Preemergence, 500 g ai/ha, scale 0 to 100, read-out: Corn plant response rating): 90%
- Plant response rating (0 = no effect, 100 = complete control), Surinam Grass ([3]; 62 g ai/ha, preemergence): 85
- Surinam Grass plant response rating [3, 11]: 100
- pest or weed control at 250 g/ha ([3]; Urochloa decumbens, pre-emergence, 312 h, 250 g ai/ha, scale 0 to 100 (0 no effect, 100 complete control), visual, 12 to 14 days, read-out: Plant response rating, Surinam Grass): 100%
- Plant response rating (0 = no effect, 100 = complete control), Nutsedge, Yellow ([4]; 62 g ai/ha, preemergence): 50
- pest or weed control at 250 g/ha ([4]; Cyperus, pre-emergence, 250 g ai/ha, scale 0 to 100 (0 no effect, 100 complete control), visual, 12 to 14 days, read-out: Plant response rating, Nutsedge, Yellow): 80%
- Nutsedge, Yellow plant response rating [4, 11]: 85
- Plant response rating (0 = no effect, 100 = complete control), Corn ([5]; 62 g ai/ha, preemergence): 60
- Corn plant response rating [5, 11]: 80
- Corn plant response rating (crop injury, 0 = no effect, 100 = complete kill) at 125 g/ha ([5]; Zea mays, pre-emergence, 312 h, 125 g ai/ha, scale 0-100): 60%
- Corn plant response rating (crop injury, 0 = no effect, 100 = complete kill) at 250 g/ha ([5]; Zea mays, pre-emergence, 312 h, 250 g ai/ha, scale 0 to 100 (0 no effect, 100 complete control), visual, 12 to 14 days): 80%
- Plant response rating (0 = no effect, 100 = complete control), Crabgrass, Large ([6]; 62 g ai/ha, preemergence): 75
- pest or weed control at 125 g/ha ([6]; Digitaria sanguinalis, pre-emergence, 312 h, 125 g ai/ha, scale 0-100, read-out: Plant response rating, Crabgrass, Large): 95%
- pest or weed control at 250 g/ha ([6]; Digitaria sanguinalis, pre-emergence, 312 h, 250 g ai/ha, scale 0 to 100 (0 no effect, 100 complete control), visual, 12 to 14 days, read-out: Plant response rating, Crabgrass, Large): 95%
- Crabgrass, Large plant response rating [6, 11]: 100
- Plant response rating (0 = no effect, 100 = complete control), Velvetleaf ([7]; 62 g ai/ha, preemergence): 40
- pest or weed control at 250 g/ha ([7]; Abutilon theophrasti, pre-emergence, 250 g ai/ha, scale 0 to 100 (0 no effect, 100 complete control), visual, 12 to 14 days, read-out: Plant response rating, Velvetleaf): 100%
- Velvetleaf plant response rating [7, 11]: 100
- pest or weed control at 125 g/ha ([8]; Avena fatua, post-emergence, 336 h, 125 g ai/ha, read-out: Oat, Wild plant response rating): 10%
- Plant response rating, Oat, Wild ([8]; 500 g ai/ha, visual rating after 13 to 15 days): 70
- Plant response rating (0 = no effect, 100 = complete control), Soybean ([9]; 62 g ai/ha, preemergence): 70
- plant injury at 250 g/ha ([9]; Glycine max, pre-emergence, 250 g ai/ha, scale 0 to 100 (0 no effect, 100 complete control), visual, 12 to 14 days, read-out: Plant response rating, Soybean): 100%
- Soybean plant response rating [9, 11]: 100
- Plant response rating (0 = no effect, 100 = complete control), Pigweed ([10]; 62 g ai/ha, preemergence): 100
- pest or weed control at 250 g/ha ([10]; Amaranthus retroflexus, pre-emergence, 250 g ai/ha, scale 0 to 100 (0 no effect, 100 complete control), visual, 12 to 14 days, read-out: Plant response rating, Pigweed): 100%
- Pigweed plant response rating [10, 11]: 100
